# Measured values reported in patent publication US9790188B2, “Benzimidazole derivatives and uses thereof” (Whitehead Institute for Biomedical Research, priority 2013, dated 2017).
# “Also recorded” adds a separate entry of the source.
# Key:
# TDP-43 = assay: Yeast growth rescue screen, cells expressing TDP-43; type: cell-based; settings: yeast expressing TDP-43
# From the text: Thus, rescue was not targeted to a common feature of misfolded protein toxicity, but rather reflected the ability of ABI to target specific pathologies related to α-syn (and to a lesser degree TDP-43).
# Yeast strains expressing toxic proteins have been described previously (6, 9, 33, 34) (Table 1). All strains have either single or multiple inserts for galactose-inducible expression. In addition, all stains have either deletions of the Δpdr1::KanMX and Δpdr3::KanMX or Δpdr5::KanMX to reduce efflux of compounds and required compound dosing. Yeast were cultured in complete synthetic media (CSM) and an appropriate dropout (minus HIS or URA) to maintain plasmids if required. For galactose-induction experiments, overnight cultures were grown in CSM/2% glucose to saturation and diluted 1:20 into CSM/2% raffinose for ˜2 generations. Cultures were then diluted into CSM/2% galactose at an optimum OD600 for the experiment (see ‘Growth assays’).
# Starting cultures for all dose-response assays were established as described above. All growth assays were carried out in 384 well-format. Source plates were assembled in 96 well plates using multichannel pipettes to dilute rows in 1.6-fold serial dilutions of CSMGal. […] Plates were then read with a Tecan Saphire plate reader at OD600. […]
# α-syn [1] = assay: Western blot of α-syn levels in yeast; type: cell-based; settings: α-syn-expressing yeast
# Procedure: Protein analysis of α-syn-GFP was performed in NoTox, InTox, and HiTox strains with ABI1 treatment at indicated concentrations. Log phase CSM/2% raffinose cultures were induced with 2% galactose for 5 hours with DMSO or ABI1. Cultures were normalized to cell density and cell pellets prepared for SDS-PAGE. Cell pellets were boiled in SDS-loading dye for 15′, centrifuged, and resolved by 4-12% SDS-PAGE. […] From the same gel, total protein was detected by coomassie staining. Both blots and coomassie-stained gels were scanned using the Li-Cor Odyssey imaging system and quantitated. Values were expressed as α-syn normalized to total protein (FIG. 1E). Significance was determined using a one-way ANOVA with Tukey's test of significance.
# α-syn [2] = assay: Yeast growth rescue from α-syn toxicity (dose-response); type: cell-based
# Procedure: For galactose-induction experiments, overnight cultures were grown in CSM/2% glucose to saturation and diluted 1:20 into CSM/2% raffinose for ˜2 generations. Cultures were then diluted into CSM/2% galactose at an optimum OD600 for the experiment (see ‘Growth assays’).
# (§1) Source plates were assembled in 96 well plates using multichannel pipettes to dilute rows in 1.6-fold serial dilutions of CSMGal. […] For α-syn, the final starting OD600 was 0.02. Drug concentration ranges varied depending on efficacy, growth inhibition, and solubility in media. A Tecan EvoFreedom liquid handling robot was then used to transfer culture from 96 to 384 well format with each well being represented four times. Final well volume was 35 μL. Plates were then incubated in humidified containers at 30° C. for either 24 or 40 hours. Plates were then read with a Tecan Saphire plate reader at OD600.
# (§2) Raw OD600 values were transformed to “Relative Growth” in WT cells or “% Maximum Rescue” in α-syn experiments. In WT cells, the well background was subtracted and all values were then normalized to 100% for the untreated condition. In α-syn rescue experiments, the well background was subtracted and the maximum rescue in the particular experiment was normalized to 100%.
# htt72Q = assay: Yeast growth rescue, htt72Q proteinopathy model; type: cell-based
# Procedure: (§3) (A) Structure of lead compound ABI. (B) Dose-response curves showing the relative rescue of ABI (log2, μM) in five yeast proteinopathy models. Rescue is relative to a positive control compound as determined by growth (OD600). (C) Localization of α-syn-GFP in strains with increasing toxicity: NoTox, InTox, HiTox and HiTox treated with 10 μM ABI. […] (E) (Left panel) Western blot of α-syn-GFP in NoTox, InTox, and HiTox strains with anti-α-syn antibody. (Right panel) Quantitation of western blot (α-syn relative to total protein quantitated from a Coomassie gel and normalized to 100% for HiTo). **: P<0.01; and ***: P<0.001, according to one-way ANOVA and a Tukey's test.
# (§4) Yeast strains expressing toxic proteins have been described previously (6, 9, 33, 34) (Table 1). All strains have either single or multiple inserts for galactose-inducible expression. In addition, all stains have either deletions of the Δpdr1::KanMX and Δpdr3::KanMX or Δpdr5::KanMX to reduce efflux of compounds and required compound dosing. Yeast were cultured in complete synthetic media (CSM) and an appropriate dropout (minus HIS or URA) to maintain plasmids if required. […]
# (§5) Starting cultures for all dose-response assays were established as described above. […] Plates were then read with a Tecan Saphire plate reader at OD600.
# Cpy = assay: CPY western blot, ER-to-Golgi trafficking in α-syn yeast; type: cell-based; settings: α-syn-expressing yeast
# Procedure: CPY western blots were performed using culture conditions as described above. An anti-Cpy antibody (Invitrogen, A6428) was used at 1:5,000. Post-ER:ER ratios were quantitated using an IRDye800 secondary antibody (Li-Cor Odyssey, Rockland Immunochemicals) and scanned with the Li-Cor Odyssey imaging system. Significance was determined using a one-way ANOVA and Tukey's test of significance.
# aSyn^A53T iPS neurons [3] = assay: ER protein trafficking (nicastrin, GCase, Endo H) in patient iPS neurons; settings: human cortical neurons from iPSCs of a patient carrying α-syn mutations
# Procedure: Trafficking from ER was assessed by probing for nicastrin and GCase with or without Endo H treatment. Data are normalized using corrected/A53T ratios established in FIG. 6 to more faithfully depict the biological significance of the small molecule effects (n=3). […] All data represented as mean±SEM (*: p<0.05; **: p<0.01, two tail t-test compared to control condition).
# Trafficking from ER was assessed by probing for nicastrin and GCase with or without Endo H treatment.
# WT yeast = assay: Growth inhibition of wild-type yeast (dose-response); type: cell-based; settings: at concentrations higher than those that rescue α-syn toxicity
# Procedure: as §1, §2
# aSyn^A53T iPS neurons [4] = assay: Nitrosative stress (NO sensor FL2) in patient iPS neurons; settings: human cortical neurons from iPSCs of a patient carrying α-syn mutations
# From the text: Nitrosative stress was monitored by protein nitration levels using the 3-NT antibody. […] All data represented as mean±SEM (*: p<0.05; **: p<0.01, two tail t-test compared to control condition).
# FUS/TLS = assay: Yeast growth rescue, FUS/TLS proteinopathy model; type: cell-based
# Procedure: as §3, §4, §5
# Aβ peptide = assay: Yeast growth rescue, Aβ peptide proteinopathy model; type: cell-based
# Procedure: as §3, §4, §5
structure (smiles),measurement,setting,value
"Cc1cccc(-n2cnc3cc(C(=O)NCc4ccccc4Cl)ccc32)c1 [ABI, N-(2-chlorobenzyl)-1-(m-tolyl)-1H-benzo[d]imidazole-5-carboxamide]",efficacy against TDP-43 (restoration of growth),TDP-43,modest efficacy
same,α-syn levels,α-syn [1],did not reverse α-syn phenotypes by reducing α-syn levels; also recorded: did not detect changes
same,growth-inhibitory concentration relative to EC50 in rescuing α-syn toxicity,α-syn [2],about four-fold
same,potency and efficacy against α-syn (rescue of growth),α-syn [2]; compared with TDP-43 model,much greater potency and efficacy
same,efficacy against htt72Q,htt72Q,"not, however, effective"
same,ER-to-Golgi trafficking (Cpy) / forward protein trafficking through the ER,Cpy,directly ameliorated an ER-Golgi trafficking block
same,ER-to-Golgi protein trafficking defect,aSyn^A53T iPS neurons [3],ameliorated an ER-to-Golgi protein trafficking defect
same,growth inhibition of wild-type cells,WT yeast,inhibited the growth of wild-type cells
same,nitrosative stress,aSyn^A53T iPS neurons [4],reduced nitrosative stress
same,efficacy against FUS/TLS,FUS/TLS,"not, however, effective"
same,efficacy against Aβ peptide,Aβ peptide,"not, however, effective"
